Structures can show the parent of a compound that is named as a salt.
Legend:
[1] = target: T1, activated human C1 (Homo sapiens, UniProt P09871); assay: Test Code 026 (C1 inhibitor): protection of fluid phase human C2 from activated human C1 in the presence of C4, serial dilution assay; type: biochemical; details: activity in wells, twofold serial dilutions; higher well number indicates higher activity
T1 construct: fluid-phase C2 destruction in presence of C4
Protocol: (§1) An active inhibitor protects C2 from C1 and C4; (ii) Test Code 035 (C3-C9 inhibitor)--This test determines the ability of the late components of human complement (C3-C9) to lyse EAC 142 in the presence of appropriate dilutions of the test compound. An active inhibitor protects EAC 142 from lysis by human C3-C9; and (iii) Cap 50 Test--Here, appropriate amounts of the test compound are added to a pool of guinea pig serum in vitro, after which the undiluted serum capillary tube assay of U.S. Pat. No. 3,876,376 is run. The concentration of compound inhibiting 50% is reported.
(§2) **Activity in wells, a serial dilution assay; higher well number indicate
(§3) higher activitiy. The serial dilutions are twofold.

[2] = system: late components of human complement (C3-C9); assay: Test Code 035 (C3-C9 inhibitor): protection of EAC 142 from lysis by late components of human complement; type: biochemical; details: activity in wells, twofold serial dilutions; higher well number indicates higher activity
Protocol: as §1, §2, §3

T1 sequence (P09871 16-688): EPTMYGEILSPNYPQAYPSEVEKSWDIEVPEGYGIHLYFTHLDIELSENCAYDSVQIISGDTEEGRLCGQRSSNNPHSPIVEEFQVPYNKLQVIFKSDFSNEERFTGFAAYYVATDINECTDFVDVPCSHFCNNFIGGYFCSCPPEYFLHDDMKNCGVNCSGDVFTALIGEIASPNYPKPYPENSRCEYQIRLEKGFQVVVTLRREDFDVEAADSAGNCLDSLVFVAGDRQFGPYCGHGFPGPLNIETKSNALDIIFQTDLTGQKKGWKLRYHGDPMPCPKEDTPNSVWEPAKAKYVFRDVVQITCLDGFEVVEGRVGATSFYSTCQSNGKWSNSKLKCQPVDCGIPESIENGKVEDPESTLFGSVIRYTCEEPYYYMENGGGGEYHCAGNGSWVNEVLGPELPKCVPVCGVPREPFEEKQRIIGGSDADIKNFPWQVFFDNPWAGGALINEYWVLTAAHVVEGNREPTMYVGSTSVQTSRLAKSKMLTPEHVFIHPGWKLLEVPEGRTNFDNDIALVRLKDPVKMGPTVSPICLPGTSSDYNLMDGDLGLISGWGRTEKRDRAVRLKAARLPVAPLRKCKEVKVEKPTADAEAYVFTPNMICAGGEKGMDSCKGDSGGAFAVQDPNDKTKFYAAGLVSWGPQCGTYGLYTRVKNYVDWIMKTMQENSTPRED
T1 sequence (P00736 18-705 partner): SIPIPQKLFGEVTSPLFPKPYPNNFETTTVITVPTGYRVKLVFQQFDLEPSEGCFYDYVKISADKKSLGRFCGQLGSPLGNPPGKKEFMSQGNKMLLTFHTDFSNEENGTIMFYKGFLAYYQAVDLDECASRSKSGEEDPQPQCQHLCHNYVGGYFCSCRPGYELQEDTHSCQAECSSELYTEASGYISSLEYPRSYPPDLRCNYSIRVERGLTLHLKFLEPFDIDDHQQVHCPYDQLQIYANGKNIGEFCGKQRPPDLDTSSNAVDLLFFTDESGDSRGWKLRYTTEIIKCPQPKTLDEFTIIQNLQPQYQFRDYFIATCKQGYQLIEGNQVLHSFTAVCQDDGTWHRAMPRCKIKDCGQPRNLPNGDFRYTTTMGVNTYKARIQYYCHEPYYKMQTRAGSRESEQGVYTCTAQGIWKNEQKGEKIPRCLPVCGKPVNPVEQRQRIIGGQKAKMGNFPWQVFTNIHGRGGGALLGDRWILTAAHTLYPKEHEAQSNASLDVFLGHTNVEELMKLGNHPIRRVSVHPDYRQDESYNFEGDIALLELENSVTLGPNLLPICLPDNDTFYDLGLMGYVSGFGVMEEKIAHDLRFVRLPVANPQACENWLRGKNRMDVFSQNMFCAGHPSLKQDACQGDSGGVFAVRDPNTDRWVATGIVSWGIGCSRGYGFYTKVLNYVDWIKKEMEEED
T1 sequence (P02745 23-245 partner): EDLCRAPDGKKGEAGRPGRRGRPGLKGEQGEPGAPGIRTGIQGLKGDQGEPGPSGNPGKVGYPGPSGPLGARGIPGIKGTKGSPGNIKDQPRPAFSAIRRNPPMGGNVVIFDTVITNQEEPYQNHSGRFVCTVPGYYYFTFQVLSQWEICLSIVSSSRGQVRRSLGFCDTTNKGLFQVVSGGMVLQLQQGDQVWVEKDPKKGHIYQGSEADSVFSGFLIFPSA
T1 sequence (P02746 28-253 partner): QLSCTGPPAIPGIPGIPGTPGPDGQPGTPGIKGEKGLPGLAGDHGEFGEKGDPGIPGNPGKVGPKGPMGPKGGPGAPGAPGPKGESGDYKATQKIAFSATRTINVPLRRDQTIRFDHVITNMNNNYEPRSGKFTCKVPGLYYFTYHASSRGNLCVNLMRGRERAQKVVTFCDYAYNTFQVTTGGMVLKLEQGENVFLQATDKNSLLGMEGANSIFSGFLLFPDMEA
T1 sequence (P02747 29-245 partner): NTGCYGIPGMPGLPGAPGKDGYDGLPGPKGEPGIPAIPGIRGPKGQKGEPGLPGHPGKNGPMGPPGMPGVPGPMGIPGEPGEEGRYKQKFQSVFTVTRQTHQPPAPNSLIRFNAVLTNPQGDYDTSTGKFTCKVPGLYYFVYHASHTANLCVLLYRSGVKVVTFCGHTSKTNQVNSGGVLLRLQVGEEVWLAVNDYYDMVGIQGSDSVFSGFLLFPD

For `CC(=O)N[C@@H]1[C@@H](OS(=O)(=O)O)[C@H](OS(=O)(=O)O)[C@@H](COS(=O)(=O)O)O[C@H]1Sc1cccc(S[C@@H]2O[C@H](COS(=O)(=O)O)[C@@H](OS(=O)(=O)O)[C@H](OS(=O)(=O)O)[C@H]2NC(C)=O)c1` [1,3-Bis-[β-D-(2-acetylamino)-glucopyranosyl-1-thio]-phenylene, hexakis(H-sulfate), hexasodium salt], the “Cl 026 Wells” value [1] was 5 Wells and the “C-Late 035 Wells” value [2] was 1 Wells.

In the case of `O=C(O)[C@H]1O[C@@H](Sc2cccc(S[C@@H]3O[C@H](C(=O)O)[C@@H](OS(=O)(=O)O)[C@H](OS(=O)(=O)O)[C@H]3OS(=O)(=O)O)c2)[C@H](OS(=O)(=O)O)[C@@H](OS(=O)(=O)O)[C@@H]1OS(=O)(=O)O` [1,3-Bis[β-D-glucopyranosiduronic acid-1-thio]-phenylene, hexakis(H-sulfate), octasodium salt], the “Cl 026 Wells” value [1] is reported as 5 Wells.

For `O=S(=O)(O)OC[C@H]1O[C@@H](Sc2ccc(Oc3ccc(S[C@@H]4O[C@H](COS(=O)(=O)O)[C@@H](OS(=O)(=O)O)[C@H](OS(=O)(=O)O)[C@H]4OS(=O)(=O)O)cc3)cc2)[C@H](OS(=O)(=O)O)[C@@H](OS(=O)(=O)O)[C@@H]1OS(=O)(=O)O` [Oxydi-p-phenylene bis-[1-thio-β-D-glucopyranoside], octakis(H-sulfate), octasodium salt], the “Cl 026 Wells” value [1] was 4 Wells.

— patent US4459293A, “Method of modulating the complement system by administering bis-[β-D-glucopyranosyl-1-thio (or sulfinyl or sulfonyl)]-aryline sulfate derivatives and the cation salts thereof” (American Cyanamid Company, priority 1983, dated 1984)
